According to patent US6576247B1, “Sustained-release aromatic and method of detecting micro-organism by using the same” (Kanebo Ltd. and T. Hasegawa Co. Ltd., priority 1994, dated 2003):

Legend:
[1] = tested on: Coryneform bacteria (Corynebacterium); assay: Glycoside decomposition ability test of Coryneform bacteria; assay type: cell-based; settings: for Detected component and its amount: 2-phenylethyl alcohol: 32° C., glycoside 0.5% by weight in SCD liquid medium, GC-FID
Experimental: Each of the glycosides synthesized in Synthesis Examples 1 to 3 was added to a soybean casein digest liquid medium (SCD liquid medium) at an amount of 0.5% by weight based on the medium. To the liquid medium was inoculated 2% of bacterial liquid of Coryneform bacteria which had been precultured in an SCD liquid medium. This was cultured at 32° C. in a static state. The culture liquid was sampled after 2 days and 4 days culture and sterizing treatment was conducted on a conventional manner. After the sterizing treatment, aroma components were extracted with the same volume of diethyl ether as that of the culture liquid sampled. The structure of the components was identified on a GC-MS. The amount of the components released was determined on a GC with a detector of FID.

[2] = tested on: Saccharomyces cerevesiae; assay: Perfume glycoside decomposition ability test of bread yeast; assay type: cell-based; settings: glycoside 0.5% by weight in 15% sucrose solution, yeast 7% by weight, 4° C.
Experimental: Saccharomyces cerevesiae which had been cultured at 30° C. for 1 hour was added, at a concentration of 7% by weight, to a 15% by weight sucrose aqueous solution each containing the glycosides prepared in Synthesis Examples 2, 4 or 5 in an amount of 0.5% by weight. This was cultured at 4° C. while shaked. After 15 minutes and 4 hours culture, the culture liquid was sampled and centrifuged to precipitate the yeast. The supernatant was then extracted with the same volume of diethyl ether as that of the supernatant. The structure of the aroma components was identified on a GC-MS. The amount of the component released was determined on a GC with a detector of FID.

| Structure (SMILES) | Detected component and its amount: 2-phenylethyl alcohol ([1]; after 2 days culture) | Detected component and its amount: 2-phenylethyl alcohol ([1]; after 4 days culture) | Amount of aroma components ([2]; after 15 minutes culture) | Amount of aroma components ([2]; after 4 hours culture) | Detected component and its amount: vanillin ([1]; after 2 days culture) | Detected component and its amount: vanillyl alcohol ([1]; after 2 days culture) | Detected component and its amount: vanillin ([1]; after 4 days culture) | Detected component and its amount: vanillyl alcohol ([1]; after 4 days culture) |
| --- | --- | --- | --- | --- | --- | --- | --- | --- |
| OC[C@H]1O[C@H](OCCc2ccccc2)[C@H](O)[C@@H](O)[C@@H]1O [2-phenylethylglucoside (α-form), 2-Phenylethyl Glucoside (α-form)] | 0.01 peak area × 10^6 | 0.3 peak area × 10^6 | 0.4 peak area × 10^5 | 1.6 peak area × 10^5 |  |  |  |  |
| OC[C@H]1O[C@@H](OCCc2ccccc2)[C@H](O)[C@@H](O)[C@@H]1O [2-phenylethylglucoside (β-form), 2-Phenylethyl Glucoside (βform)] | 1.1 peak area × 10^6 | 8.0 peak area × 10^6 |  |  |  |  |  |  |
| CC(C)=CCCC(C)CCO[C@@H]1O[C@H](CO)[C@@H](O)[C@H](O)[C@H]1O (stereo partly drawn) [citronellyl glucoside (β-form), Citronellyl Glucoside (β-form)] |  |  | 2.6 peak area × 10^5 | 8.8 peak area × 10^5 |  |  |  |  |
| C=CCc1ccc(O[C@@H]2O[C@H](CO)[C@@H](O)[C@H](O)[C@H]2O)c(OC)c1 [eugenyl glucoside (β-form), Eugenyl Glucoside (β-form)] |  |  | 0.5 peak area × 10^5 | 1.3 peak area × 10^5 |  |  |  |  |
| COc1cc(C=O)ccc1O[C@@H]1O[C@H](CO)[C@@H](O)[C@H](O)[C@H]1O [glucovanillin (β-form), Glucovanillin (β-form)] |  |  |  |  | 0.01 peak area × 10^6 | 0 peak area × 10^6 | 1.75 peak area × 10^6 | 0.2 peak area × 10^6 |
